Like-named read-outs stand apart in the source and are kept apart here.
Experiments:
axillary malodor = assay: topical treatment of axillary malodor on the skin; assay type: in vivo, human; conditions: for outcome of treatment of repeated infections: overnight; for effect against axillary malodors: topical application to armpits, applicants' own experiments
Source text: Non-prescription azoles sold in groceries are intended for treating feet or vaginal fungal infections. Essentially the same compositions are often sold for feet and vaginal applications under different labels and in different forms. For axillary use, we strongly prefer them as creams.
In our experiments, we treated the armpits, then switched to all new underwear, and rigorously sterilized it with chlorine-based bleaches after every use. […]
A person, low perspiration, axillary malodor since puberty. […] Now uses peroxide bleach all the time.

[1] = in vivo
Source text: (§1) Undecylenic acid, salicylic acid and peroxides suffer from certain disadvantages.

[2] = skin tolerability on armpit application
Source text: as §1

Clc1ccc(C(Cn2ccnc2)OCc2ccsc2Cl)c(Cl)c1 (stereo not shown) [tioconazole]
outcome of treatment of repeated infections (axillary malodor; person, one-time treatment): cured | effectiveness compared with clotrimazole (axillary malodor; vaginal tioconazole product, topical on armpits): much more effective than clotrimazole

Clc1ccc(COC(Cn2ccnc2)c2ccc(Cl)cc2Cl)c(Cl)c1 (stereo not shown) [miconazole]
outcome of treatment of repeated infections (axillary malodor; person, two times in a row): cured | outcome of first treatment of axillary malodor (axillary malodor; person, two applications per day, seven days in a row): Successfully treated

O=C(OOC(=O)c1ccccc1)c1ccccc1 [benzoyl peroxide]
effect against axillary malodors (axillary malodor): functional

CN(C/C=C/C#CC(C)(C)C)Cc1cccc2ccccc12 [Terbinafine]
effect against axillary malodors (axillary malodor): some effect

OO [hydrogen peroxide]
effect against axillary malodors (axillary malodor): functional

C=CCCCCCCCCC(=O)O [Undecylenic acid]
effect against axillary malodors (axillary malodor): functional | adverse skin effects [1]: may cause pain, burning and irritations

Cc1cccc(N(C)C(=S)Oc2ccc3ccccc3c2)c1 [tolnaftate]
effect against axillary malodors (axillary malodor): some effect

Clc1ccccc1C(c1ccccc1)(c1ccccc1)n1ccnc1 [clotrimazole]
time at which the odor disappears (axillary malodor; mature axillary malodor, cream two times a day, two weeks treatment): between the fourth and the seventh day

O=C(O)c1ccccc1O [salicylic acid]
effect against axillary malodors (axillary malodor): functional | adverse skin effects [2]: may cause pain, burning and irritations

Source: patent US20030161799A1, “Practical and humane method for armpit odor care” (priority 2002, published 2003)
